Data reported in patent US20230355517A1, “USE OF ACTIVE SUBSTANCES WITH ANTIVIRAL, ANTI MALARIAL, AND/OR MUCOLYTIC PROPERTIES IN THE TREATMENT OF VIRAL LUNG DISEASES INCLUDING COVID-19 BY SOFT MIST INHALER OR VIBRATION MESH TECHNOLOGY NEBULIZER THROUGH INHALATION ROUTE” (ATANBUL UNIVERSITESI REKTOLUGU, priority 2020, published 2023).

Assays:
[1] = pH analysis of compositions containing favipiravir; assay type: physicochemical
Experimental: In the present invention, pH analysis was performed for the composition containing favipiravir. […] When it is formulated with phosphate buffer, pH values thereof approach 7,4. Therefore, in consideration of all combinations, the pH interval for the formulations was kept in the range of 3.5-8.0.

lung tissue = test system: lung tissue; design: species or system rats; details: rat, in vivo
[2] = assay type: physicochemical; details: pH 7.4
Experimental: In the present invention, a study for solubility of favipiravir active substance was conducted.

SMILES: NC(=O)c1nc(F)c[nH]c1=O [favipiravir]
- pH values ([1]; formulated with phosphate buffer): ~7,4
- smallest pH value ([1]; in combinations of physiological saline, half physiological saline, and HP-β-cyclodextrin): 3.56-3.62
- histological damage scores of the lungs (H&E) (lung tissue): not statistically different
- lung histology under light microscopy (lung tissue): Normal lung histology
- solubility [2]: further increased
